Measurements as given in ChEMBL document CHEMBL6153139, “Discovery of Novel Isoxazole-Based Small-Molecule Toll-Like Receptor 8 Antagonists” (J Med Chem, 2025).
The source made the active and inactive calls. The rule behind the calls is not given here.

What was measured:
[1] = Cytotoxicity against HEK-Blue hTLR8 cells assessed as reduction in cell viability at 25 to 50 uM incubated for 24 hrs by MTT assay; assay type: toxicity, cell-based; details: human, hek-blue htlr8, 24 h, dose 25-50 µM
[2] = system: T1, Toll-like receptor 8 (Homo sapiens), Q9NR97 [F495L]; assay: Antagonist activity at human TLR8 F495L mutant transfected in HEK293 cells assessed as inhibition of TL8-506 induced NFkappaB activation at 1 uM preincubated with compound for 1 hrs followed by TL8-506 addition and measured after 24 hrs by Quanti-blue reagent based SEAP reporter assay; assay type: cell-based; details: filed as antagonist
T1 sequence (whole entry): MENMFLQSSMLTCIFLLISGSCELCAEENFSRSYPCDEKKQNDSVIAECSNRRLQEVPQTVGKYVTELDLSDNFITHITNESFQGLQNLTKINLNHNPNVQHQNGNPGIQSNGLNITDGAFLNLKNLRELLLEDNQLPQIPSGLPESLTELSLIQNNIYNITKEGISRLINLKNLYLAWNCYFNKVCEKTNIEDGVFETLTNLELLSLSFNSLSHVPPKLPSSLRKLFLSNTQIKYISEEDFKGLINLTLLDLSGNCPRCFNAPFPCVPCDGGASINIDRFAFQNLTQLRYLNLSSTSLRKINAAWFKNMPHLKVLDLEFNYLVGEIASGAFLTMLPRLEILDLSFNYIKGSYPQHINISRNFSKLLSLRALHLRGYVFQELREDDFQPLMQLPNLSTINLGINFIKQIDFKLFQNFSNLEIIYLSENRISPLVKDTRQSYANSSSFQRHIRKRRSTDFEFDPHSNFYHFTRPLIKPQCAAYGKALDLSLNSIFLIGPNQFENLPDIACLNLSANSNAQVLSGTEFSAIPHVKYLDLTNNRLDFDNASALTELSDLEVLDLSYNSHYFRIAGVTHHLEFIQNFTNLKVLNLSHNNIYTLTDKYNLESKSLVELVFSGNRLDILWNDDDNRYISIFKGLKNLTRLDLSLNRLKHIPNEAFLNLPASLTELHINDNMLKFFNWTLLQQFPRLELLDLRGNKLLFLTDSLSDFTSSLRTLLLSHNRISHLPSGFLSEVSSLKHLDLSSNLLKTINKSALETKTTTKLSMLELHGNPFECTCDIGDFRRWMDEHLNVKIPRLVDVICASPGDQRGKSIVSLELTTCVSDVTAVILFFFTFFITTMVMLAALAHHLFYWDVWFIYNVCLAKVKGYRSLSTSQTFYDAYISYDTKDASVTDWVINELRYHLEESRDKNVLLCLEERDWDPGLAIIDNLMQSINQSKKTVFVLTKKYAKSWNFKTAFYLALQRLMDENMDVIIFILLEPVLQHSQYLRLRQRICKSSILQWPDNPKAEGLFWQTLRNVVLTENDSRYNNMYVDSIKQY

[3] = system: T1, Toll-like receptor 8 (Homo sapiens), Q9NR97 [F495L]; assay: Antagonist activity at human TLR8 F495L mutant transfected in HEK293 cells assessed as inhibition of CL075 induced NFkappaB activation at 1 uM preincubated with compound for 1 hrs followed by CL075 addition and measured after 24 hrs by Quanti-blue reagent based SEAP reporter assay; assay type: cell-based; details: filed as antagonist
THP-1 = assay: Cytotoxicity against human THP-1 cells assessed as reduction in cell viability upto 100 uM incubated for 24 hrs by MTT assay; assay type: toxicity, cell-based; details: thp-1, 24 h
[4] = Cytotoxicity against human PBMC cells assessed as reduction in cell viability upto 100 uM incubated for 24 hrs by LDH release assay; assay type: toxicity, cell-based

SMILES	Activity [1]	Activity [2]	Activity [3]	Activity (THP-1)	Activity [4]
Cc1noc(C)c1COc1ccc(C(=O)NCC(c2ccco2)N(C)C)cc1 (configuration not stated)	Non-toxic	–	–	–	–
N#Cc1ccc(N2C[C@H](N)C[C@H](C(F)(F)F)C2)c2cccnc12	–	Active	Active	–	–
COc1cc(C(=O)NCCN2CCCC2)ccc1OCc1c(C)noc1C	Non-toxic	–	–	–	–
COc1cc(C(=O)NCC(c2ccc(C)cc2)N(C)C)ccc1OCc1c(C)noc1C (configuration not stated)	Non-toxic	–	–	Non-toxic	Non-toxic
